Laboratory results as given in ChEMBL document CHEMBL1147191, “Structure-activity relationship studies on anti-HCV activity of ring-expanded ('fat') nucleobase analogues containing the imidazo[4,5-e][1,3]diazepine-4,8-dione ring system” (Bioorg Med Chem Lett, 2007).

Legend:
Hepatitis C virus = experiment: Antiviral activity against HCV in Huh7 ET cells assessed as HCV RNA derived luciferase activity at 10 uM by replicon assay relative to control; format: functional, Hepacivirus hominis
[1] = Cytotoxicity against Huh7 ET cells assessed as beta actin level relative to control; format: cell-based; design: concentration or dose not given beside the values; details: human
[2] = Selectivity index, ratio of toxicity against Huh7 ET cells to viral activity against HCV; format: functional

CCCCCCCCNc1nc(=O)c2c(nc(-c3ccccc3)n2Cc2ccc(OC)cc2)c(=O)[nH]1
Activity (Hepatitis C virus): 88% | Activity [1]: 82% | Selectivity index [2]: 0.932

NC(=O)c1ncn([C@@H]2O[C@H](CO)[C@@H](O)[C@H]2O)n1 [RIBAVIRIN]
Activity (Hepatitis C virus): 89% | Activity [1]: 12% | Selectivity index [2]: 0.42

CCCCCCCCNc1nc(=O)c2c(nc(-c3ccc(OC)cc3)n2Cc2ccc(OC)cc2)c(=O)[nH]1
Activity (Hepatitis C virus): 54% | Activity [1]: 79% | Selectivity index [2]: 1.463

CCCCCCCCNc1nc(=O)c2c(nc(Br)n2Cc2ccc(OC)cc2)c(=O)[nH]1
Activity (Hepatitis C virus): 32% | Activity [1]: 69% | Selectivity index [2]: 2.155

CCCCCCCCNc1nc(=O)c2c(nc(C#CCCO)n2Cc2ccc(OC)cc2)c(=O)[nH]1
Activity (Hepatitis C virus): 90% | Activity [1]: 52% | Selectivity index [2]: 0.578
